Patent publication US20060057669A1, “Inactive transcription factor tif-ia and uses thereof” (priority 2002, published 2006)

What was measured:
Pol I transcription [1] = test: In vitro transcription: TIF-IA mutants added to nuclear extract from exponentially growing FM3A cells; type: biochemical, murine; settings: 20 and 40 ng added to 15 ug nuclear extract
Pol I transcription [2] = test: Complementation of Pol I transcription in nuclear extracts from PD98059-treated FM3A cells; type: biochemical
Procedure: (C) TIF-IA, but not UBF, rescues Pol I transcription in extracts from PD98059-treated cells. Nuclear extracts from untreated or PD98059-treated FM3A cells were supplemented with 20 and 40 ng of purified TIF-IA and/or UBF (10 ng in lanes 7 and 9, 50 ng in lanes 3, 8 and 10).
(D) TIF-IA activates transcription in extracts from PD98059-treated cells in the presence of AMP-PNP and GMP-PNP. Nuclear extracts from PD98059-treated FM3A cells were supplemented with 40 ng of purified TIF-IA and assayed in the standard transcription system containing ATP and GTP (ATP, lanes 1, 2) or AMP-PNP and GMP-PNP (AMP-PNP, lanes 3, 4)
(D) ERK/RSK-dependent phosphorylation activates Pol I transcription in vitro. Nuclear extracts from PD98059-treated FM3A cells were supplemented with 40 ng of TIF-IA, 10 ng of HA-RSK, or 10 ng of HA-ERK as indicated, and transcriptional activity was assayed in the standard transcription system containing ATP and GTP (lanes 4-8) or AMP-PNP and GMP-PNP (lanes 9-13).
Nuclear extracts were prepared from exponentially growing (8×10^5 cells/ml), density-arrested or PD98059-treated (CN Bioscience, Bad Soden, Germany) 40 μM, 0.5 hr) or rapamycin-treated FM3A cells (ATCC, Manassas, USA). 25 μl assays contained 50 ng of template DNA (pMr600/EcoRI), 30 μg nuclear extract proteins and 12 mM Hepes-KOH, [pH8.0], 0.1 mM EDTA, 5 mM MgCl2, 80 mM KCl, 10 mM creatine phosphate, 12% (v/v) glycerol, 0.66 mM each of ATP, GTP and CTP, 0.01 mM UTP and 0.5 μCi [α-^32P]UTP (5000 Ci/mmol). After incubation for 60 min at 30° C., RNA was extracted and analyzed on non-denaturing 5% polyacrylamide gels
To test whether both TIF-IA and UBF, or TIF-IA alone, were targeted by ERK-mediated phosphorylation, nuclear extracts from untreated and PD98059-treated cells were assayed for rDNA transcription in the absence and presence of exogenous TIF-IA or UBF (FIG. 2C). If both UBF and TIF-IA were inactivated by PD98059, rescue of Pol I transcriptional activity would require both factors, whereas TIF-IA alone would be sufficient if it was the only factor that is inactivated by inhibition of the ERK pathway. […]

Q: For “TIF-IA: wild-type human transcription initiation factor TIF-IA, accession No. AJ272050”, which “effect on transcriptional activity of extracts from exponentially growing cells” value (Pol I transcription [1]) is on record?
A: not stimulated by exogenous TIF-IA

Q: And the “rescue of Pol I transcription in extracts from PD98059-treated cells” value (Pol I transcription [2]; in the presence of AMP-PNP and GMP-PNP)?
A: activation of Pol I transcription by TIF-IA was also observed

Q: And the “rescue of Pol I transcription in extracts from PD98059-treated cells” value (Pol I transcription [2]; standard transcription system containing ATP and GTP)?
A: rescued
